Test results reported in patent US20260132128A1, “COMPOUND FOR RECOVERING P53 MUTATION FUNCTION AND USE THEREOF” (SHENZHEN ZHONGGE BIOLOGICAL TECHNOLOGY CO., LTD., priority 2022, published 2026).
Like-named read-outs stand apart in the source and are kept apart here.

Tests used:
[1] = Caco-2 cell permeability test; type: in vitro ADME; settings: human, pH 7.4, Caco-2, 10 μM; for Papp A→B at 120 min, 10 μM: A to B; for Papp B→A at 120 min, 10 μM: B to A
Procedure: Caco-2 cells (ATCC, Cat. No. HTB-37) were inoculated to a 96-well plate (Corning HTS Transwell, Cat. No. 3391) at 1.25×10^5/cm2, and the culture medium (DMEM+10% FBS+1% Penicillin-Streptomycin Liquid (100×)+1% NEAA) was replaced every 3 to 4 days. The plate was placed in an incubator at 37° C. with 5% CO2 until a confluent cell monolayer was formed after 21 to 28 days. Before the transport experiment, the culture medium was removed from the cell culture plate, and the plate was washed twice with pre-warmed HBSS buffer (10 mM HEPES, pH 7.4), and 100 μL of HBSS buffer was added to each well. After incubation at 37° C. for 30 minutes, the TEER value was measured using a cell resistance meter (Millicell-ERS2) to confirm the integrity and density of the monolayer cells. The HBSS buffer was discarded, the upper plate containing the cell monolayer membrane was transferred to the corresponding receiving plate, 10 mM test compound stock solution was diluted to a concentration of 10 μM with HBSS transport buffer containing 0.5% BSA, and it was added to the apical side (A side) and basolateral side (B side), respectively. Incubation was carried out for 120 min at 37° C., 5% CO2, and 95% relative humidity, and the permeation of the test compound from A side to B side or from B side to A side and the efflux rate of the compound were determined. The test compound and the reference compound were quantified by LC-MS/MS analysis based on the peak area ratio of analyte/internal standard. The apparent permeability coefficient Papp (cm/s) was calculated using the following formula:
[formula] • wherein, dCr/dt represented the functional relation between cumulative concentration of compound in receptor compartment and time; V represented the volume of solution in receptor compartment (0.1 mL at apical side, and 0.25 mL at basolateral side); A represented the transport surface area, i.e., the monolayer cell area was 0.0804 cm^2; CO represented the initial concentration of compound in donor compartment.
The efflux ratio was calculated using the following formula: […]
The percent recovery was calculated using the following formula:
[formula] [formula] • wherein, Vd represented the volume of donor compartment (0.1 mL on the apical side and 0.25 mL on the basolateral side); C and Cr represented the final concentrations of the transported compound in the donor and receptor compartment, respectively; Cc represented the compound concentration in cell lysate; Vc represented the volume of insert well (which was 0.1 mL in this experiment).

[2] = target: T1, CYP 3A4 (Homo sapiens, UniProt P08684); test: CYP 3A4 time-dependent inhibition test; type: in vitro ADME; settings: midazolam substrate
T1 construct: purchased BioIVT X008067
Procedure: CYP 3A4 and the test compound or mifepristone of various concentrations were added to a 96-deep well plate for pre-incubation. The plate was placed in a water bath and preheated at 37° C. for 5 min. For the 0 min pre-incubation samples, midazolam substrate was added to the incubation plate, then 10 mM NADPH solution was added, and the reaction was carried out in a 37° C. water bath for 5 min; for the 30 min pre-incubation samples with NADPH, 10 mM NADPH solution was added to the incubation plate, pre-incubated in a 37° C. water bath for 30 min, and then midazolam substrate was added and reacted in a 37° C. water bath for 5 min; for the 30 min pre-incubation samples without NADPH, the incubation plate was pre-incubated in a 37° C. water bath for 30 min, then midazolam substrate was added, 10 mM NADPH solution was added, and the reaction was carried out in a 37° C. water bath for 5 min. After the reaction was completed, the quenching solution (500 nM tolbutamide (Bide Pharmaceuticals, Cat. No. BD154332) and 10 nM terfenadine (Sigma, Cat. No. T96532)) were added to quench the reaction, and the plate was centrifuged at 3,220 g for 40 min at 4° C. The supernatant was pipetted into a new plate, the supernatant was diluted with pure water and mixed well, and the sample was analyzed using UPLC-MS/MS.

[3] = Pharmacokinetic test in mice; type: in vivo; settings: male, ICR, mouse, plasma; for AUC / Cmax: 25 mg/kg, po 25 mpk; for clearance: 2.5 mg/kg, iv 2.5 mpk
Procedure: ICR male mice (15 to 35 g, 5 to 10 weeks old, Shanghai Xipuer-Bikai Experimental Animal Co., Ltd.) were selected as test animals in this study. The LC-MS/MS method was used to quantitatively determine drug concentrations in the plasma of mice at different time points after intravenous injection or oral gavage administration of the test compound to evaluate the pharmacokinetic characteristics of the compound in mice. The clear solution of the test compound was injected into ICR mice via the tail vein (without fasting, solvent: 40% hydroxypropyl-β-cyclodextrin) and administered to ICR mice by oral gavage (fasting for 10 to 14 hours, free drinking water, solvent: 0.2% hydroxypropyl cellulose, 0.5% Tween 80). For intravenous administration, blood was collected from the submandibular venous plexus at 0.033, 0.083, 0.25, 0.5, 1, 2, 4, 8, and 24 hours after administration, placed in an anticoagulant tube with EDTA-K2 (Jiangsu Kangjian Medical Supplies Co., Ltd.), mixed, and centrifuged at 2-8° C., 6800 g for 6 minutes to obtain plasma; for oral gavage administration, blood was collected from the submandibular venous plexus at 0.083, 0.25, 0.5, 1, 2, 4, 6, 8, and 24 hours after administration, placed in an anticoagulant tube with EDTA-K2 (Jiangsu Kangjian Medical Supplies Co., Ltd.), mixed, and centrifuged at 2-8° C., 6800 g for 6 minutes to obtain plasma. The blood drug concentration was determined by LC-MS/MS, and the relevant pharmacokinetic parameters were calculated by the non-compartmental linear logarithmic trapezoidal method using Phoenix WinNonlin™ Version 7.0 (Pharsight, USA) pharmacokinetic software.

[4] = 0 min pre-incubation, read-out: IC50 (μM) 0 min
[5] = 30 min pre-incubation with NADPH, read-out: IC50 (μM) 30 min, with NADPH
[6] = 30 min pre-incubation without NADPH, read-out: IC50 (μM) 30 min, without NADPH

T1 sequence (P08684 whole entry): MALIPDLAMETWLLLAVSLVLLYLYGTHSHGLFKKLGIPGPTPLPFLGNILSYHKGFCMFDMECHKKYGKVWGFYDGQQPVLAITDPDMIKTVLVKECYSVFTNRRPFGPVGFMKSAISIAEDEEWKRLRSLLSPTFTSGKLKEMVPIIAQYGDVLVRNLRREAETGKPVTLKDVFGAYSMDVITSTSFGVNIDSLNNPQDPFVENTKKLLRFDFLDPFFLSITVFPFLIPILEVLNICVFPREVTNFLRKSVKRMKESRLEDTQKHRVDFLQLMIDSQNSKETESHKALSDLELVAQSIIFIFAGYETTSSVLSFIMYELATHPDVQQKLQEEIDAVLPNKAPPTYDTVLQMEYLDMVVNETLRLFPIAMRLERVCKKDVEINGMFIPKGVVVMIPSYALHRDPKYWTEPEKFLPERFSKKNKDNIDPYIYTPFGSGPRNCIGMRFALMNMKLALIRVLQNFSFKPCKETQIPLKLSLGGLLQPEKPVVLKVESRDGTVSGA

Row | efflux ratio at 120 min, 10 μM [1] | Papp A→B at 120 min, 10 μM [1] | Papp B→A at 120 min, 10 μM [1] | IC50 [2, 4] | IC50 [2, 5] | IC50 [2, 6] | AUC [3] | Cmax [3] | clearance [3] | Structure (SMILES)
1 |  |  |  | 4.55 µM | 1.56 µM | 5.91 µM | 17.4 µg·h/mL | 4.16 µg/mL | 1.02 L/h/kg | [2H]C([2H])([2H])NC(=O)c1ccc(NCC#Cc2cc3c(NC4CCC(N5CC6(COC6)C5)CC4F)cccn3c2CC(F)(F)F)c(OC([2H])([2H])[2H])c1 (single isomer, unassigned) [Compound 74d]
2 | 1.22 | 49.2 nm/s | 59.9 nm/s |  |  |  |  |  |  | [2H]C([2H])([2H])NC(=O)c1ccc(NCC#Cc2nc3c(NC4CC[C@@H](N5CC6(COC6)C5)C[C@@H]4F)cccn3c2CC(F)(F)F)c(OC([2H])([2H])[2H])c1 (stereo partly drawn) [Compound 64]
3 | 3.09 | 24.1 nm/s | 74.6 nm/s |  |  |  |  |  |  | CNC(=O)c1ccc(NCC#Cc2nc3c(NC4CC[C@@H](N5CC6(COC6)C5)C[C@@H]4F)cccn3c2CC(F)(F)F)c(OCF)c1 (stereo partly drawn) [Compound 58]
4 | 2.24 | 23 nm/s | 51.6 nm/s |  |  |  |  |  |  | COc1cc(C(=O)NC2CC2)ccc1NCC#Cc1nc2c(NC3CC[C@@H](N4CC5(COC5)C4)C[C@@H]3F)cccn2c1CC(F)(F)F (stereo partly drawn) [Compound 54]

More lines, now with the values behind:

Row | Structure (SMILES) | efflux ratio at 120 min, 10 μM [1] | Papp A→B at 120 min, 10 μM [1] | Papp B→A at 120 min, 10 μM [1] | IC50 [2, 4] | IC50 [2, 5] | IC50 [2, 6] | AUC [3] | Cmax [3] | clearance [3]
5 | CNC(=O)c1ccc(NCC#Cc2nc3c(N[C@@H]4CCN(C)C[C@@H]4F)cccn3c2CC(F)(F)F)c(OC)c1 [Compound 5] | 8.27 | 28 nm/s | 231 nm/s | 8.05 µM | 1.89 µM | 8.36 µM | 4.07 µg·h/mL | 1.15 µg/mL | 3.24 L/h/kg
6 | CNC(=O)c1ccc(NCC#Cc2nc3c(NC4CCC(N5CC6(COC6)C5)CC4F)cccn3c2CC(F)(F)F)c(OC)c1 (single isomer, unassigned) [Compound 35-6i] | 4.31 | 26.6 nm/s | 114 nm/s | 7.48 µM | 3.01 µM | 7.46 µM | 19.7 µg·h/mL | 6.86 µg/mL | 1.2 L/h/kg
